# Laboratory results published in patent US20140227741A1, “Biological Systems for Production of Highest Quality Proteins” (Mediterranean Institute for Life Sciences, priority 2012, published 2014).
# What was measured:
# [1] = system: protein carbonylation (PC) amount; assay: Effect of 1 mM trolox on protein carbonylation (PC) amount; type: cell-based, E. coli
# From the text: (§1) The functional defects of proteins, correlating with their oxidative damage (carbonylation), can be suppressed by antioxidants in proportion to the extent of the decrease in protein carbonylation. This is illustrated by the effects of trolox (6-hydroxy-2,5,7,8-tetramethylchroman-2-carboxylic acid) on the reduction of ROS species levels and PC levels as given in Table 2.
# The procedure for the quantification of protein carbonylation by ELISA method is as follows. The steps of protein extraction are as described in Example 1 (steps 1 and 2). Protein […] concentration is determined and adjusted so that the proteins are loaded into ELISA wells at 10 μg/mL. Adsorbed proteins are derivatized by using 12 μg/mL DNPH. Derivatization of adsorbed proteins is followed by detection of derivatized dinitrophenol (DNP)-carbonyl by a rabbit anti-DNP primary antibody (Sigma, D9656) and goat anti-rabbit secondary antibody conjugated to HRP (Jackson ImmunoResearch, 111-035-14). Stocks of antibodies were prepared at ˜1 ug/uL and used at 1:7000 dilutions.
# [2] = system: reactive oxygen species (ROS) level; assay: Effect of 1 mM trolox on reactive oxygen species (ROS) level; type: cell-based, E. coli
# From the text: as §1
structure (smiles),measurement,setting,value
"Cc1c(C)c2c(c(C)c1O)CCC(C)(C(=O)O)O2 (stereo not drawn) [trolox, 6-hydroxy-2,5,7,8-tetramethylchroman-2-carboxylic acid]",PC reduction,[1]; strain wt,0.26
same,PC reduction,[1]; strain ΔdnaK,0.25
same,PC reduction,[1]; strain Δtig,0.33
same,ROS reduction,[2]; strain wt,0.41
same,ROS reduction,[2]; strain ΔdnaK,0.41
same,ROS reduction,[2]; strain Δtig,0.45
